Source: patent US20160304556A1, “[…] ACTIVE COMPOUNDS AND THEIR METHODS OF USE” (AGIOS PHARMACEUTICALS, INC, priority 2012, published 2016)

Key:
IDH1 R132C = IDH1 R132C (Homo sapiens, UniProt O75874, R132C); assay: In vitro NADPH depletion assay for IDH1m R132C inhibitors; format: biochemical; conditions: enzyme, diaphorase/resazurin readout, read-out: IDH R132C IC50
Method: (§1) A test compound is prepared as 10 mM stock in DMSO and diluted to 50× final concentration in DMSO, for a 50 μl reaction mixture. IDH enzyme activity converting alpha-ketoglutarate to 2-hydroxyglutaric acid is measured using a NADPH depletion assay. In the assay the remaining cofactor is measured at the end of the reaction with the addition of a catalytic excess of diaphorase and resazurin, to generate a fluorescent signal in proportion to the amount of NADPH remaining. IDH1-R132 homodimer enzyme is diluted to […] in 40 μl of Assay Buffer(150 mM NaCl, 20 mM Tris-Cl pH 7.5, 10 mM MgCl2, 0.05% BSA, 2 mM b-mercaptoethanol); 1 μl of test compound dilution in DMSO is added and the mixture is incubated for 60 minutes at room temperature. The reaction is started with the addition of 10 μl of Substrate Mix ([…], 5 mM alpha-ketoglutarate, in Assay Buffer) and the mixture is incubated for 90 minutes at room temperature. The reaction is terminated with the addition of 25 μl of Detection Buffer (36 μg/ml diaphorase, […], in 1× Assay Buffer), and is incubated for 1 minute before reading on a SpectraMax platereader at Ex544/Em590.
Compounds are assayed for their activity against IDH1 R132C following the same assay as above with the following modifications: Assay Buffer is (50 mM potassium phosphate, pH 6.5; 40 mM sodium carbonate, 5 mM MgCl2, 10% glycerol, 2 mM b-mercaptoethanol, and 0.03% BSA). The concentration of NADPH and alpha-ketoglutarate in the Substrate Buffer is 20 μM and 1 mM, respectively.
(§2) Representative compounds of formula I set forth in Table 1 were tested in this assay and the results are set forth below in Table 3.

IDH1 R132H = IDH1 R132H (Homo sapiens, UniProt O75874, R132H); assay: In vitro NADPH depletion assay for IDH1m R132H inhibitors; format: biochemical; conditions: enzyme, diaphorase/resazurin readout, read-out: IDH R132H IC50
Chain of IDH1 R132H (O75874 whole entry R132H): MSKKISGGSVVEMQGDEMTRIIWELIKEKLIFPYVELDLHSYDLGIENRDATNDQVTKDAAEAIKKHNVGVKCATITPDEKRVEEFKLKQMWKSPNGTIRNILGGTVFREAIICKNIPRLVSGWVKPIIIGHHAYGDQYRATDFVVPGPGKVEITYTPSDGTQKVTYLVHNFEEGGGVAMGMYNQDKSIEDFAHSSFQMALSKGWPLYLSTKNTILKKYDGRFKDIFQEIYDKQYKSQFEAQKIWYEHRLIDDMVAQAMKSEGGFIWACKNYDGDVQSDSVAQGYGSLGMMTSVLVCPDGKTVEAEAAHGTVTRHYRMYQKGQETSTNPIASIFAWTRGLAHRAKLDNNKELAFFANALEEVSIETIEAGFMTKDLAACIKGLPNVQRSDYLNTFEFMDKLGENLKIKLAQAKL
Method: as §1, §2

HT1080 cells = assay: Cellular assay, inhibition of 2-HG production (LC-MS) in HT1080 cells; format: cell-based; conditions: Homo sapiens, HT-1080, 48 hours, LC-MS of media
Method: Cells (HT1080 or U87MG) are grown in T125 flasks in DMEM containing 10% FBS, 1× penicillin/streptomycin and 500 ug/mL G418 (present in U87MG cells only). They are harvested by trypsin and seeded into 96 well white bottom plates at a density of 5000 cell/well in 100 μl/well in DMEM with 10% FBS. No cells are placed in columns 1 and 12. Cells are incubated overnight at 37° C. in 5% CO2. The next day test compounds are made up at 2× the final concentration and 100 μl are added to each cell well. The final concentration of DMSO is 0.2% and the DMSO control wells are plated in row G. The plates are then placed in the incubator for 48 hours. At 48 hours, 100 μl of media is removed from each well and analyzed by LC-MS for 2-HG concentrations. The cell plate is placed back in the incubator for another 24 hours. At 72 hours post compound addition, 10 mL/plate of Promega Cell Titer Glo reagent is thawed and mixed. The cell plate is removed from the incubator and allowed to equilibrate to room temperature. Then 100 μl of Promega Cell Titer Glo reagent is added to each well of media. The cell plate is then placed on an orbital shaker for 10 minutes and then allowed to sit at room temperature for 20 minutes. The plate is then read for luminescence with an integration time of 500 ms.
The IC50 for inhibition of 2-HG production (concentration of test compound to reduce 2HG production by 50% compared to control) in these two cell lines for various compounds of formula I is set forth in Table 2 above.

Chain of IDH1 R132C (O75874 whole entry R132C): as the sequence (O75874 whole entry R132H) above, with H132C counted along it

Row | Compound | IC50 (IDH1 R132C) [nM] | IC50 (IDH1 R132H) [nM] | IC50 (HT1080 cells) [nM]
1 | COC(=O)NCC(=O)N(c1cccc(F)c1)[C@H](C(=O)N[C@@H]1CCCC(F)(F)C1)c1ccccc1Cl (single isomer, unassigned) [Compound 95, methyl 2-((1-(2-chlorophenyl)-2-(3,3-difluorocyclohexylamino)-2-oxoethyl) (3-fluoro-phenyl)amino)-2-oxoethylcarbamate] | 100 to 500 | 100 to 500 | 
2 | O=C(NC1CC(F)(F)C1)[C@H](c1ccccc1Cl)N(C(=O)[C@@H]1CCN1c1ncccn1)c1cccc(F)c1 [Compound 103] | 500 to 1000 | 1000 to 2000 | 
3 | COC(=O)NCC(=O)N(c1cccc(F)c1)C(C(=O)NC1CC(F)(F)C1)c1c(Cl)cccc1Cl (centres unmarked) [Compound 76] | 100 to 500 | 100 to 500 | 
4 | COC(=O)N[C@H](C(=O)N(c1cccc(F)c1)C(C(=O)NC1CC(F)(F)C1)c1ccccc1Cl)[C@@H](C)O (some centres unmarked) [Compound 99] | 500 to 1000 | 500 to 1000 | 
5 | COC(=O)N1C[C@@H](N)C[C@H]1C(=O)N(c1cccc(F)c1)[C@H](C(=O)NC1CC(F)(F)C1)c1ccccc1Cl [Compound 89] | 500 to 1000 | 100 to 500 | 
6 | COC(=O)NCC(=O)N(c1cccc(F)c1)[C@H](C(=O)N[C@H]1CCCC(F)(F)C1)c1ccccc1Cl (single isomer, unassigned) [Compound 94, methyl 2-((1-(2-chlorophenyl)-2-(3,3-difluorocyclohexylamino)-2-oxoethyl) (3-fluoro-phenyl)amino)-2-oxoethylcarbamate] | 100 to 500 | 100 to 500 | 
7 | COC(=O)N[C@@H](CO)C(=O)N(c1cccc(F)c1)C(C(=O)NC1CC(F)(F)C1)c1ccccc1Cl (some centres unmarked) [Compound 56] | 500 to 1000 | 100 to 500 | 
8 | O=C(NC1CCCCC1)C(c1ccc(F)cc1F)N(C(=O)Cn1cnc(Cl)c1Cl)c1ccc(F)c(F)c1 (centres unmarked) [Compound 30, N-cyclohexyl-2-(2-(4,5-dichloro-1H-imidazol-1-yl)-N-(3,4-difluorophenyl)acetamido)-2-(2,4-difluorophenyl)acetamide] |  | 100 to 500 | 500 to 1000
9 | CCS(=O)(=O)NCC(=O)N(c1cccc(F)c1)C(C(=O)NC1CCCCC1)c1ccccc1C (centres unmarked) [Compound 6] |  | 100 to 500 | 1000 to 2000
10 | O=C(NC1CCCCC1)C(c1ccccc1Cl)N(C(=O)C1Cc2ccccc2N1)c1cccc(F)c1 (centres unmarked) [Compound 32] |  | 100 to 500 | 100 to 500
11 | COC(=O)NCC(=O)N(c1cccc(F)c1)C(C(=O)NC1CC(F)(F)C1)c1c(F)cccc1Cl (centres unmarked) [Compound 77] | 500 to 1000 | 100 to 500 | 
12 | COC(=O)N1CCC[C@H]1C(=O)N(c1cccc(F)c1)[C@H](C(=O)NC1CC(F)(F)C1)c1ccccc1Cl [Compound 42, (S)-methyl 2-(((S)-1-(2-chlorophenyl)-2-((3,3-difluorocyclobutyl)amino)-2-oxoethyl)(3-fluorophenyl)carbamoyl)pyrrolidine-1-carboxylate] |  | ≤ 100 | 100 to 500
13 | COC(=O)N1CCC[C@H]1C(=O)N(c1cccc(S(N)(=O)=O)c1)[C@H](C(=O)NC1CCC(F)(F)CC1)c1ccccc1Cl [Compound 57] |  | 100 to 500 | 500 to 1000
14 | O=C(NC1CCC(F)(F)CC1)C(c1ccccc1Cl)N(C(=O)Cn1cnnn1)c1cccc(F)c1 (centres unmarked) [Compound 49] | 100 to 500 | 100 to 500 | 
15 | N#Cc1ccnc(N2c3ccccc3C[C@H]2C(=O)N(c2cc(F)cc(F)c2)C(C(=O)NC2CC(F)(F)C2)c2ccccc2Cl)c1 (stereo partly drawn) [Compound 119, (2S)—N-(1-(2-chlorophenyl)-2-((3,3-difluorocyclobutyl)amino)-2-oxoethyl)-1-(4-cyanopyridin-2-yl)-N-(3,5-difluorophenyl)indoline-2-carboxamide] |  | 100 to 500 | 100 to 500
16 | O=C(NC1CCC(F)(F)CC1)C(c1ccccc1Cl)N(C(=O)Cn1ccnn1)c1cccc(F)c1 (centres unmarked) [Compound 46] |  | 100 to 500 | 1000 to 2000
17 | O=C(NC1CCC(F)(F)CC1)C(c1ccccc1Cl)N(C(=O)Cn1cnc(Cl)c1Cl)c1cccc(F)c1 (centres unmarked) [Compound 33] |  | ≤ 100 | 100 to 500

Row | Compound | IC50 (IDH1 R132C) [nM] | IC50 (IDH1 R132H) [nM] | IC50 (HT1080 cells) [nM]
18 | Cc1ccccc1C(C(=O)NC1CC(F)(F)C1)N(C(=O)CNc1ncccc1F)c1cccc(F)c1 (centres unmarked) [Compound 17] |  | 100 to 500 | 100 to 500
19 | COC(=O)N1CCN(C)C[C@H]1C(=O)N(c1cccc(F)c1)[C@H](C(=O)NC1CC(F)(F)C1)c1ccccc1Cl [Compound 80, (S)-Methyl 2-(((S)-1-(2-chlorophenyl)-2-(3,3-difluorocyclobutylamino)-2-oxoethyl)-(3-fluorophenyl)carbamoyl)-4-methylpiperazine-1-carboxylate] | 100 to 500 | 100 to 500 | 
20 | O=C(NC1CC(F)(F)C1)C(c1ccccc1Cl)N(C(=O)Cn1ccnc1CO)c1cccc(F)c1 (centres unmarked) [Compound 72] | 500 to 1000 | 100 to 500 | 
21 | O=C(NC1CC(F)(F)C1)C(c1ccccc1Cl)N(C(=O)c1ccnn1-c1ncccn1)c1cccc(F)c1 (centres unmarked) [Compound 116, N-(1-(2-chlorophenyl)-2-((3,3-difluorocyclobutyl)amino)-2-oxoethyl)-N-(3-fluorophenyl)-1-(pyrimidin-2-yl)-1H-pyrazole-5-carboxamide] | 100 to 500 | 500 to 1000 | 
22 | COC(=O)N1COC[C@H]1C(=O)N(c1cccc(F)c1)[C@H](C(=O)NC1CC(F)(F)C1)c1ccccc1Cl [Compound 54] |  | ≤ 100 | 500 to 1000
23 | COC(=O)N1C[C@H](N)C[C@H]1C(=O)N(c1cccc(F)c1)[C@H](C(=O)NC1CC(F)(F)C1)c1ccccc1Cl [Compound 65] | 500 to 1000 | 100 to 500 | 
24 | O=C(NC1CCC(F)(F)CC1)C(c1ccccc1Cl)N(C(=O)Cn1cncn1)c1cccc(F)c1 (centres unmarked) [Compound 45] |  | 100 to 500 | 1000 to 2000
25 | Cc1ccccc1[C@@H](C(=O)NC1CCCCC1)N(C(=O)[C@H]1CCCN1S(C)(=O)=O)c1cccc(F)c1 [Compound 2] |  | 100 to 500 | 1000 to 2000
26 | COC(=O)N1C[C@@H](O)C[C@H]1C(=O)N(c1cccc(F)c1)[C@H](C(=O)NC1CC(F)(F)C1)c1ccccc1Cl [Compound 52] |  | ≤ 100 | 500 to 1000
27 | O=C(NC1CC(F)(F)C1)C(c1ccccc1Cl)N(C(=O)Cc1ccncc1)c1cccc(F)c1 (centres unmarked) [Compound 64] |  | ≤ 100 | 100 to 500
28 | COC(=O)N1C[C@@H](OC)C[C@H]1C(=O)N(c1cccc(F)c1)[C@H](C(=O)NC1CC(F)(F)C1)c1ccccc1Cl [Compound 63] |  | ≤ 100 | 1000 to 2000
29 | O=C(NC1CC(F)(F)C1)C(c1ccccc1Cl)N(C(=O)Cn1cncn1)c1cccc(F)c1 (centres unmarked) [Compound 36] | 1000 to 2000 | 100 to 500 | 
30 | COC(=O)N1CCN(C(C)=O)C[C@H]1C(=O)N(c1cccc(F)c1)[C@@H](C(=O)NC1CC(F)(F)C1)c1ccccc1Cl [Compound 67, (S)-Methyl 4-acetyl-2-(((R)-1-(2-chlorophenyl)-2-(3,3-difluorocyclobutylamino)-2-oxoethyl)(3-fluorophenyl)carbamoyl)piperazine-1-carboxylate] | 100 to 500 | 100 to 500 | 
31 | O=C(NC1CC(F)(F)C1)C(c1ccccc1Cl)N(C(=O)[C@@H]1CCCc2nccn21)c1cccc(F)c1 (stereo in doubt) [Compound 41] |  | ≤ 100 | 100 to 500
32 | COC(=O)NCC(=O)N(c1cccc(F)c1)C(C(=O)NC1CC(F)(F)C1)c1c(F)cccc1F (centres unmarked) [Compound 78] | 1000 to 2000 | 500 to 1000 | 
33 | N#Cc1cccc(N(C(=O)Cn2cnc(Cl)c2Cl)C(C(=O)NC2CCCCC2)c2ccccc2Cl)c1 (centres unmarked) [Compound 27] |  | 100 to 500 | 500 to 1000
34 | COC(=O)N1C[C@H](OCCN(C)C)C[C@H]1C(=O)N(c1cccc(F)c1)[C@H](C(=O)NC1CC(F)(F)C1)c1ccccc1Cl [Compound 104] | 1000 to 2000 | 500 to 1000 | 
